Measured values reported in patent publication US20240150362A1, “Substituted Pyrrolotriazines” (Molecure S.A., priority 2022, published 2024).
Counter-ions that a name gives are not always drawn.

target: T1, full-length USP7 (Homo sapiens, UniProt Q93009); test: Enzymatic assay to determine % inhibition of USP7 activity at 1 μM test compound (Ubiquitin-Rhodamine 110 cleavage); assay type: biochemical; conditions: 1 μM of the test compound; given where IC50 has not been determined yet; mean of two repetitions
T1 construct: A 45 μl reaction volume containing full-length USP7 (0.5-1.0 nM)
T1 sequence (Q93009 whole entry): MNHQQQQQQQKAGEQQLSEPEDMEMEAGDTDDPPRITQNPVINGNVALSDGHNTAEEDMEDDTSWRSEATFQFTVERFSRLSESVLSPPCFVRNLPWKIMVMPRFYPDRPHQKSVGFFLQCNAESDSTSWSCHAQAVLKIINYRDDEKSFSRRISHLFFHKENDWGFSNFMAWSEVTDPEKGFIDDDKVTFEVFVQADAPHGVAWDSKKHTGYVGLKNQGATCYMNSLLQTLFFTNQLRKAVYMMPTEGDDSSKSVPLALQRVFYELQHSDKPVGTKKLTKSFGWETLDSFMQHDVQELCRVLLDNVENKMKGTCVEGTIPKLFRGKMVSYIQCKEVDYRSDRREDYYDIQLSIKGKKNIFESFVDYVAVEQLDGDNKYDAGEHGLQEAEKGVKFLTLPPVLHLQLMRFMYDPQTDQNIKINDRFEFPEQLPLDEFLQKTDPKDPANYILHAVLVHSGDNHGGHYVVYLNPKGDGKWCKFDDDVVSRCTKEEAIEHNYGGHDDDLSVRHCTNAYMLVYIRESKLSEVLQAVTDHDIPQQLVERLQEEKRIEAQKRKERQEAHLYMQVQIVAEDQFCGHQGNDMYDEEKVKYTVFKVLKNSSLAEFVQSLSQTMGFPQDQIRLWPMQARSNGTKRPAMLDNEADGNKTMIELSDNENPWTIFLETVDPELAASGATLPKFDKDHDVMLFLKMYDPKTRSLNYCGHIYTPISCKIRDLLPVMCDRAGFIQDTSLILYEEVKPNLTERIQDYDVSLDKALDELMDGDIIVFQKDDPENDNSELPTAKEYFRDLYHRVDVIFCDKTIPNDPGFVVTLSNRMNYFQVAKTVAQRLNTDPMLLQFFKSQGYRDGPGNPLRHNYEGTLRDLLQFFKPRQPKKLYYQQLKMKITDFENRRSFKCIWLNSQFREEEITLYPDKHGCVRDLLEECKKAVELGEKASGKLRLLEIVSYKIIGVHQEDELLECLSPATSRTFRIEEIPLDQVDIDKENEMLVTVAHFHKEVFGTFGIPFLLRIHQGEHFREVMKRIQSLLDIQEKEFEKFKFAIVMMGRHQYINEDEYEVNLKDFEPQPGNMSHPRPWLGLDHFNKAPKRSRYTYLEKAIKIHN
Protocol: Enzymatic Assay to Determine % Value of Inhibition […] Activity at 1 μM […]
A 45 μl reaction volume containing full-length USP7 (0.5-1.0 nM) in 50 mM HEPES pH 7.5, 150 mM NaCl, 2 mM DTT, 1 mg/ml BSA and 0.05% Tween20 (DUB assay buffer) was assembled in wells of 96 well half area black flat bottom plates. All test compounds were first dissolved to 30 mM stocks in DMSO and subsequently introduced to enzyme 15 min after USP7 incubation with DTT at room temperature. The final concentration of tested compounds was 1 μM. The enzymatic reaction was started by adding 0.5 μM Ubiquitin-Rhodamine 110 (final concentration) and allowed to proceed for 30-60 min at 25° C., 250 RPM shaking before Rhodamine fluorescence (485 nm excitation/535 nm emission) was measured using Tecan Spark M10 plate reader. Percentage of inhibition at 1 μM was determined by the mean of two repetitions for these concentrations using Microsoft Excel software.

Row | inhibition at 1 µM [%] | SMILES
1 | 50 to 70 | CC1(C)C2C(=O)N(Cc3cc4c(-c5cc(Cl)ccc5N5C[C@H]6CCN[C@H]6C5)ncnn4c3)C(=O)C21 (stereo partly drawn) [Example 90, 3-((4-(5-chloro-2-((3aR,6aR)-hexahydropyrrolo[3,4-b]pyrrol-5(1H)-yl)phenyl)pyrrolo[2,1-f][1,2,4]triazin-6-yl)methyl)-6,6-dimethyl-3-azabicyclo[3.1.0]hexane-2,4-dione hydrochloride]
2 | 50 to 70 | Cc1cc(Cl)cc(-c2ncnn3cc(CN4C(=O)C5C(C4=O)C5(C)C)cc23)c1C(=O)N1C[C@@H](N)[C@@H](C)C1 (stereo partly drawn) [Example 23, 3-((4-(2-((3S,4S)-3-amino-4-methylpyrrolidine-1-carbonyl)-5-chloro-3-methylphenyl)pyrrolo[2,1-f][1,2,4]triazin-6-yl)methyl)-6,6-dimethyl-3-azabicyclo[3.1.0]hexane-2,4-dione 2,2,2-trifluoroacetate]
3 | > 70 | CC(C)n1ccc(=O)n(Cc2cc3c(-c4cc(Cl)cc5ccn(CC6(F)CCNCC6)c45)ncnn3c2)c1=O [Example 127, 3-((4-(5-chloro-1-((4-fluoropiperidin-4-yl)methyl)-1H-indol-7-yl)pyrrolo[2,1-f][1,2,4]triazin-6-yl)methyl)-1-isopropylpyrimidine-2,4(1H,3H)-dione hydrochloride]
4 | 50 to 70 | Cc1c(CN2C(=O)C3C(C2=O)C3(C)C)cn2ncnc(-c3cc(Cl)cc4ccn(CC5(F)CCNCC5)c34)c12 (stereo not shown) [Example 21, 3-((4-(5-chloro-1-((4-fluoropiperidin-4-yl)methyl)-1H-indol-7-yl)-5-methylpyrrolo[2,1-f][1,2,4]triazin-6-yl)methyl)-6,6-dimethyl-3-azabicyclo[3.1.0]hexane-2,4-dione hydrochloride]
5 | 20 to 49 | CC1(C)C2C(=O)N(Cc3cc4c(-c5cc(Cl)ccc5N5CCC6(CCCN6)C5)ncnn4c3)C(=O)C21 (stereo not shown) [Example 91, 3-((4-(5-chloro-2-(1,7-diazaspiro[4.4]nonan-7-yl)phenyl)pyrrolo[2,1-f][1,2,4]triazin-6-yl)methyl)-6,6-dimethyl-3-azabicyclo[3.1.0]hexane-2,4-dione hydrochloride]
6 | 20 to 49 | Cc1cc(Cl)cc(-c2ncnn3cc(Cn4c(=O)ccn(C)c4=O)cc23)c1CC1CNC[C@H](C)O1 (stereo partly drawn) [Example 122, 3-((4-(5-chloro-3-methyl-2-(((6S)-6-methylmorpholin-2-yl)methyl)phenyl)pyrrolo[2,1-f][1,2,4]triazin-6-yl)methyl)-1-methylpyrimidine-2,4(1H,3H)-dione dihydrochloride]
7 | < 20 | CC1(C)C2C(=O)N(Cc3cc4c(-c5cc(Cl)ccc5N5C[C@@H]6CCN[C@@H]6C5)ncnn4c3)C(=O)C21 (stereo partly drawn) [Example 96, 3-((4-(5-chloro-2-((3aS,6aS)-hexahydropyrrolo[3,4-b]pyrrol-5(1H)-yl)phenyl)pyrrolo[2,1-f][1,2,4]triazin-6-yl)methyl)-6,6-dimethyl-3-azabicyclo[3.1.0]hexane-2,4-dione hydrochloride]
8 | 20 to 49 | Cc1cc(Cl)cc(-c2ncnn3cc(CN4C(=O)C5C(C4=O)C5(C)C)cc23)c1OC[C@H]1CNCCO1 (stereo partly drawn) [Example 52, 3-((4-(5-chloro-3-methyl-2-(((R)-morpholin-2-yl)methoxy)phenyl)pyrrolo[2,1-f][1,2,4]triazin-6-yl)methyl)-6,6-dimethyl-3-azabicyclo[3.1.0]hexane-2,4-dione hydrochloride]
9 | > 70 | Cc1cc(Cl)cc(-c2ncnn3cc(CN4C(=O)CN(C)C4=O)cc23)c1C[C@@H]1CNCCO1 (single isomer, unassigned) [Example 99, hydrochloride]

same assay, conditions: 1 μM of the test compound; given where IC50 has not been determined yet; mean of two repetitions; hydrochloride, 1 µM

Row | USP7 % inhibition | SMILES
10 | B* (B*: 50-70% inhibition) | Cc1cc(Cl)cc(-c2ncnn3cc(CN4C(=O)C5C(C4=O)C5(C)C)cc23)c1OC(C)C1CCNCC1.Cl (single isomer, unassigned) [Example 56, 3-((4-(5-chloro-3-methyl-2-(1-(piperidin-4-yl)ethoxy)phenyl)pyrrolo[2,1-f][1,2,4]triazin-6-yl)methyl)-6,6-dimethyl-3-azabicyclo[3.1.0]hexane-2,4-dione hydrochloride]
